Test system: SCC4, HSC3, Cal27 OSCC cell lines
Test: MTT assay, human OSCC cell lines
Assay type: cell-based
Details: 8 h and 24 h treatments, read-out: IC50 (cell growth)
Description: SCC4 and Cal27 oral cancer cells are obtained from ATCC and maintained in DMEM supplemented with 10% fetal bovine serum and 1% penicillin/streptomycin at 37° C. with 5% CO2. For the SCC4 cells, hydrocortisone was provided at 400 ng/ml in the completed media. […] Doses to be tested will bracket the IC50s for each cell line. Control cells will receive DMSO. […] Subsequently, 10 μl of 12 mM MTT (Life Technologies; Carlsbad, Calif.) solution was added to each well, incubated for 4 hr at 37° C., and neutralized with DMSO. Absorbance was measured at 540 nm and percent viability was calculated.

## Cc1ccc(-c2cc(C(F)(F)F)nn2-c2ccc(S(N)(=O)=O)cc2)cc1 [Celecoxib]
  IC50: 75 µM

From patent publication US20210315960A1, “COMPOSITIONS OF AZADIRACHTA INDICA AND METHODS OF TREATING CANCER” (Board of Regents, The University of Texas System, priority 2018, published 2021)
